Results on 11 compounds are retold here after ChEMBL document CHEMBL5214923, “Contemporary mTOR inhibitor scaffolds to diseases breakdown: A patent review (2015-2021)” (Eur J Med Chem, 2022).

The IC50 is the concentration at which inhibition is half-maximal.

Each structure is given as a SMILES string. A value given as a limit tells only on which side of the number the result lay.

Assay [1] deals with T1, mTORC1 (Homo sapiens, UniProt P42345+Q8N122+Q9BVC4). Briefly: Inhibition of mTORC1 in human MDA-MB-468 cells assessed as measuring phosphorylated 4EBP1 incubated for 2 to 4 hrs by AlphaLISA assay. Type of assay: cell-based. (In Alpha technology, singlet oxygen from a donor bead excites a nearby acceptor bead.)
The next assay deals with mTORC2 (Homo sapiens, UniProt P42345+Q6R327+Q9BPZ7+Q9BVC4). Briefly: Inhibition of mTORC2 in human MDA-MB-468 cells assessed as measuring phosphorylated AKT incubated for 2 to 4 hrs by AlphaLISA assay. Type of assay: cell-based.
Assay [2] has as its target T1, mTORC1. The assay is described as follows: Inhibition of mTORC1 in human MDA-MB-468 cells assessed as measuring phosphorylated P70S6K incubated for 2 to 4 hrs by AlphaLISA assay. It counts as cell-based.
Assay [3] addresses T2, Phosphatidylinositol 4,5-bisphosphate 3-kinase catalytic subunit delta isoform (Homo sapiens, UniProt O00329).
T2 sequence (O00329 whole entry): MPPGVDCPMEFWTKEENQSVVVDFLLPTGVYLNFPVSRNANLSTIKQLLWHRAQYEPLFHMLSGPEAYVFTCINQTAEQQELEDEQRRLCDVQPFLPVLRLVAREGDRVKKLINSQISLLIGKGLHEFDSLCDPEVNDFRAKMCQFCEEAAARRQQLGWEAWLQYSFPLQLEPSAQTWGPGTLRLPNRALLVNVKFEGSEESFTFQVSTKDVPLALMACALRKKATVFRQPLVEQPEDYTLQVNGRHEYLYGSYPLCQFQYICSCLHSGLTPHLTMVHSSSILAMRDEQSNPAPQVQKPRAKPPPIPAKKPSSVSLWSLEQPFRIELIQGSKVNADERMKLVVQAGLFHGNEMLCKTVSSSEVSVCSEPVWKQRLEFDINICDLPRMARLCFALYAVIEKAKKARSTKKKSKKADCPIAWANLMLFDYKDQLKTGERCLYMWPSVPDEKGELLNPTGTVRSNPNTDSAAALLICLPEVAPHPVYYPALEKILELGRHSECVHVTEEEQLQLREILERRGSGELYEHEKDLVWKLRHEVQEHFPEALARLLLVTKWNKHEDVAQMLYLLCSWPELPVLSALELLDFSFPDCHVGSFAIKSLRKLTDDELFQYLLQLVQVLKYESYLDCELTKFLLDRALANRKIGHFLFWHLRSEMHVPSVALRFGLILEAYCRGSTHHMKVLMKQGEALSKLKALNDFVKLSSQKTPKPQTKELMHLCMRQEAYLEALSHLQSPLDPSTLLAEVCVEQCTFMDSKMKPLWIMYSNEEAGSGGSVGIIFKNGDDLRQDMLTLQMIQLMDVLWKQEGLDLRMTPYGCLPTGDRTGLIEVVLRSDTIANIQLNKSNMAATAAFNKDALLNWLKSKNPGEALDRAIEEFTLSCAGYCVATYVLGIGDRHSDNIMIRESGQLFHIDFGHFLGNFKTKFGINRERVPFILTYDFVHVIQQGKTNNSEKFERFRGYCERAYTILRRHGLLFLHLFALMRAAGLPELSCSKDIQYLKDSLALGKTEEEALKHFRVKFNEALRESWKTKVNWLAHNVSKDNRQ
Briefly: Inhibition of human PI3Kdelta preincubated for 15 mins followed by ATP addition measured after 1 hr by TR-FRET assay.

The target of assay [4] is T1, mTORC1. The assay is described as follows: Inhibition of mTORC1 (unknown origin). It counts as protein-complex assay.
Assay [5] in a line: Inhibition of mTORC1 in mouse MEF TSC1-/- cells assessed as measuring phosphorylated S6 level incubated for 2 hrs by Hoechst staining based fluorescence assay. Type of assay: cell-based.

Sequence of mTORC2 (Q6R327 whole entry, other chains not shown): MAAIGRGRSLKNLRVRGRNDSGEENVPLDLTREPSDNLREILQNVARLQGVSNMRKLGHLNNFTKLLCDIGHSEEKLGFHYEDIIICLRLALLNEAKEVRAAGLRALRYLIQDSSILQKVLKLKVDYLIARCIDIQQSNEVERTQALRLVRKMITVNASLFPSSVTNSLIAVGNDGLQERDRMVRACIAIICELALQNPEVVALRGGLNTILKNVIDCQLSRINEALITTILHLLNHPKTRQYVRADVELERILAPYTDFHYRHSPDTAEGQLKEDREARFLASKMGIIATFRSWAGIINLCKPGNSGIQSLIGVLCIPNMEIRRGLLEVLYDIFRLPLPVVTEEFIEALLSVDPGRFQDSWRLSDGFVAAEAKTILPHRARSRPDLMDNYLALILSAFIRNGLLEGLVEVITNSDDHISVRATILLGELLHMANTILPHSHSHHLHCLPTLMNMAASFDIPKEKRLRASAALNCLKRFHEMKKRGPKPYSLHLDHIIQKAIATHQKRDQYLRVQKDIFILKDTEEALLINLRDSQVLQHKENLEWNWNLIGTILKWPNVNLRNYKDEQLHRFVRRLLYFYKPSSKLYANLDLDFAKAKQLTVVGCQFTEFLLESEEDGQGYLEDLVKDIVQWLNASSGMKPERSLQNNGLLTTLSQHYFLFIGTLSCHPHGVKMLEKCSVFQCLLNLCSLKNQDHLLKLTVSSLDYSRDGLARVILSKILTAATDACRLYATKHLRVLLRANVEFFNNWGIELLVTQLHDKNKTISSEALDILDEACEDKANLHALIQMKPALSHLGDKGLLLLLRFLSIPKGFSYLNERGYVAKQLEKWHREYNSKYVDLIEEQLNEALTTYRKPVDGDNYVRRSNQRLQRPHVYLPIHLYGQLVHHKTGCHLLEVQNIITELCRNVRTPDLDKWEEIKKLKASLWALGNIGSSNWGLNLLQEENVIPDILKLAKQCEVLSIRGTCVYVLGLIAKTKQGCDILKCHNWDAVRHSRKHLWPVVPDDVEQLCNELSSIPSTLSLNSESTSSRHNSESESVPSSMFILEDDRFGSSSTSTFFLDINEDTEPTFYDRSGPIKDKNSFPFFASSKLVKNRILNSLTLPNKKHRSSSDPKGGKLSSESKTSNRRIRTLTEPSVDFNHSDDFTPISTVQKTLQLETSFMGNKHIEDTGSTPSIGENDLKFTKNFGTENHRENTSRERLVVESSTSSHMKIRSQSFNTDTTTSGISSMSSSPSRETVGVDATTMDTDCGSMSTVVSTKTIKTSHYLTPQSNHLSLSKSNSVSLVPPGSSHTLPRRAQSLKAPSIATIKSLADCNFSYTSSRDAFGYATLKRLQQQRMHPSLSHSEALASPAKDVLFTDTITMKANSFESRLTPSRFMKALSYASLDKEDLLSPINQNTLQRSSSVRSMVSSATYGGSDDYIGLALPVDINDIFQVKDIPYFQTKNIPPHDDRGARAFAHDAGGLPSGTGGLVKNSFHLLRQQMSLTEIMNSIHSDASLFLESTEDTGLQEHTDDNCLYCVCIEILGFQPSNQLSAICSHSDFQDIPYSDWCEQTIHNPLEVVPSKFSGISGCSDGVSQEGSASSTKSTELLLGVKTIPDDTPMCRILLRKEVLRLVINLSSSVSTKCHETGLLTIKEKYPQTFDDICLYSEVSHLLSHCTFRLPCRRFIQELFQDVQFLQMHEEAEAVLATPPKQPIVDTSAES
Sequence of mTORC2 (Q9BPZ7 2-522 limits assumed, other chains not shown): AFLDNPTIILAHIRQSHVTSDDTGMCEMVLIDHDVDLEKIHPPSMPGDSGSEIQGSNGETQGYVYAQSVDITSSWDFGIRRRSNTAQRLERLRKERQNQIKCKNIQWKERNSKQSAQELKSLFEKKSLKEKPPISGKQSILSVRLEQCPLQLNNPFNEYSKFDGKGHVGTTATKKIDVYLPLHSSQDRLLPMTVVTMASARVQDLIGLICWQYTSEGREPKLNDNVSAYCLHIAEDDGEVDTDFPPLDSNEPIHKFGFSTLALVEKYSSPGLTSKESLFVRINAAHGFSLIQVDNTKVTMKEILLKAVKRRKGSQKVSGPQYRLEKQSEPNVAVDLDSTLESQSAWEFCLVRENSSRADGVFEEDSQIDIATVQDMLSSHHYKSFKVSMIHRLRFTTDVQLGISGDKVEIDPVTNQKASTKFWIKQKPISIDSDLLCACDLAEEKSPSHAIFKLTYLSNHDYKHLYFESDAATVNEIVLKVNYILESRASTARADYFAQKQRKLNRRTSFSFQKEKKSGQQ
Sequence of mTORC2 (Q9BVC4 whole entry, other chains not shown): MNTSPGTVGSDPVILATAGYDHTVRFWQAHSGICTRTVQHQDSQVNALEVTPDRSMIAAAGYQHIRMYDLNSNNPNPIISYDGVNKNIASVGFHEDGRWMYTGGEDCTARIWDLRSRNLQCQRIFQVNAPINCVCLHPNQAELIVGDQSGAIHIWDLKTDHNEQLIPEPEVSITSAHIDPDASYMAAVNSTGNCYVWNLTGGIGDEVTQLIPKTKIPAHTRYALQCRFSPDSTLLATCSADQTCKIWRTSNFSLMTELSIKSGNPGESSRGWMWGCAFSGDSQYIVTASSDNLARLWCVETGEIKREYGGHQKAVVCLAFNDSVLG

As to `CO[C@H]1C[C@@H]2CC[C@@H](C)[C@@](O)(O2)C(=O)C(=O)N2CCCC[C@H]2C(=O)O[C@H]([C@H](C)C[C@@H]2CC[C@@H](OCc3cccc(-c4cnc(N5CCN(C(=O)CCc6cn(CCOCCOCCC(=O)NCCCCn7nc(-c8ccc9nc(N)oc9c8)c8c(N)ncnc87)nn6)CC5)nc4)c3)[C@H](OC)C2)CC(=O)[C@H](C)/C=C(\C)[C@@H](O)[C@@H](OC)C(=O)[C@H](C)C[C@H](C)C\C=C/C=C/C=C/1C`, the IC50 at mTORC1 [1] was at most 3.16 nM; on mTORC2, over 31.6 nM; on mTORC1 [2] it was at most 1 nM.
In the same order, the values of `CO[C@H]1C[C@@H]2CC[C@@H](C)[C@@](O)(O2)C(=O)C(=O)N2CCCC[C@H]2C(=O)O[C@H]([C@H](C)C[C@@H]2CC[C@@H](OCCCN3CCOC(C)(C)C3)[C@H](OC)C2)C[C@@H](O)[C@H](C)/C=C(\C)[C@@H](O)[C@@H](OC)C(NOCC(=O)NCCOCCOCCOCCOCCOCCOCCC(=O)N2CCC(n3nc(-c4ccc5oc(N)nc5c4)c4c(N)ncnc43)CC2)[C@H](C)C[C@H](C)C\C=C/C=C/C=C/1C` (stereo not given in full) are at most 3.16 nM, 1000 nM and at most 1 nM.
In the case of `Nc1ncnc2c1c(-c1cc3cc(O)ccc3[nH]1)nn2C1CCOCC1`, the concentration for half-maximal inhibition (IC50) was 50 nM in assay [3] and under 5 nM against mTORC1 [4].
Consider `CO[C@H]1C[C@@H]2CC[C@@H](C)[C@@](O)(O2)C(=O)C(=O)N2CCCC[C@H]2C(=O)O[C@H]([C@H](C)C[C@@H]2CC[C@@H](OCCCN3CCOC(C)(C)C3)[C@H](OC)C2)C[C@@H](O)[C@H](C)/C=C(\C)[C@@H](O)[C@@H](OC)C(NOCC(=O)NCCOCCOCCOCCOCCOCCOCCC(=O)N2CCc3cc(Cn4nc(-c5ccc6oc(N)nc6c5)c5c(N)ncnc54)ccc3C2)[C@H](C)C[C@H](C)C\C=C/C=C/C=C/1C` (stereo not given in full), for which the IC50 was at most 3.16 nM on mTORC1 [1], 1000 nM on mTORC2 and at most 1 nM at mTORC1 [2].
Turning to `CC(=O)N1CCC(n2nc(-c3cc4c(Cl)ccc(O)c4[nH]3)c3c(N)ncnc32)CC1`, the results for the IC50 (in assay [3]; at mTORC1 [4]) were 100 nM and under 5 nM, respectively.
`CO[C@@H]1C[C@H](C[C@@H](C)[C@@H]2CC(=O)[C@H](C)/C=C(\C)[C@@H](O)[C@@H](OC)C(=O)[C@H](C)C[C@H](C)/C=C/C=C/C=C(\C)C(N3CCCS3(=O)=O)C[C@@H]3CC[C@@H](C)[C@@](O)(O3)C(=O)C(=O)N3CCCC[C@H]3C(=O)O2)CC[C@H]1OCCO` (stereo in doubt; 13): the concentration for half-maximal inhibition (IC50) in assay [5] (mef) was determined as 8.3 nM.
In the case of `CO[C@@H]1C[C@H](C[C@@H](C)[C@@H]2CC(=O)[C@H](C)/C=C(\C)[C@@H](O)[C@@H](OC)C(=O)[C@H](C)C[C@H](C)/C=C/C=C/C=C(\C)C(N3CCS3(=O)=O)C[C@@H]3CC[C@@H](C)[C@@](O)(O3)C(=O)C(=O)N3CCCC[C@H]3C(=O)O2)CC[C@H]1O` (stereo not given in full), in assay [5] (Mus musculus, MEF, 2 h), the IC50 was 0.17 nM.
Take `Nc1ncnc2c1c(-c1cc3cccc(O)c3[nH]1)nn2C1CCOCC1`: the IC50 in assay [3] is 100 nM; against mTORC1 [4], under 5 nM.
For the compound `CO[C@@H]1C[C@H](C[C@@H](C)[C@@H]2CC(=O)[C@H](C)/C=C(\C)[C@@H](O)[C@@H](OC)C(=O)[C@H](C)C[C@H](C)/C=C/C=C/C=C(\C)C(N3CCS3(=O)=O)C[C@@H]3CC[C@@H](C)[C@@](O)(O3)C(=O)C(=O)N3CCCC[C@H]3C(=O)O2)CC[C@H]1OCCO` (stereo not given in full), the IC50 in assay [5] (Mus musculus, MEF, 2 h) was 0.328 nM.
Same read-out and setting: the same measure for `CO[C@@H]1C[C@H](C[C@@H](C)[C@@H]2CC(=O)[C@H](C)/C=C(\C)[C@@H](O)[C@@H](OC)C(=O)[C@H](C)C[C@H](C)/C=C/C=C/C=C(\C)C(N3CCCCS3(=O)=O)C[C@@H]3CC[C@@H](C)[C@@](O)(O3)C(=O)C(=O)N3CCCC[C@H]3C(=O)O2)CC[C@H]1O` (stereo not given in full): 3.4 nM; for `CO[C@@H]1C[C@H](C[C@@H](C)[C@@H]2CC(=O)[C@H](C)/C=C(\C)[C@@H](O)[C@@H](OC)C(=O)[C@H](C)C[C@H](C)/C=C/C=C/C=C(\C)[C@H](N3CCCS3(=O)=O)C[C@@H]3CC[C@@H](C)[C@@](O)(O3)C(=O)C(=O)N3CCCC[C@H]3C(=O)O2)CC[C@H]1O`: 0.274 nM.
